Test results reported in ChEMBL document CHEMBL4725392, “Orally Bioavailable Small-Molecule CD73 Inhibitor (OP-5244) Reverses Immunosuppression through Blockade of Adenosine Production” (J Med Chem, 2020).
Calls of active or inactive are those of the source. The calls are words filed in the database; no cut-off is given here.

Legend:
[1] = Cmax in dog at 10 mg/kg, po; assay type: ADME, organism-based, Canis lupus familiaris; parameters: route oral, dose 10 mg/kg; conditions: in vivo
[2] = target: T1, 5'-nucleotidase (Mus musculus) (UniProt Q61503); test: Inhibition of CD73 in mouse EMT6 cells assessed as reduction in AMP-induced ADO expression preincubated for 15 mins followed by AMP addition and measured after 1 hr by LC-MS/MS analysis relative to control; assay type: cell-based
T1 sequence (whole entry): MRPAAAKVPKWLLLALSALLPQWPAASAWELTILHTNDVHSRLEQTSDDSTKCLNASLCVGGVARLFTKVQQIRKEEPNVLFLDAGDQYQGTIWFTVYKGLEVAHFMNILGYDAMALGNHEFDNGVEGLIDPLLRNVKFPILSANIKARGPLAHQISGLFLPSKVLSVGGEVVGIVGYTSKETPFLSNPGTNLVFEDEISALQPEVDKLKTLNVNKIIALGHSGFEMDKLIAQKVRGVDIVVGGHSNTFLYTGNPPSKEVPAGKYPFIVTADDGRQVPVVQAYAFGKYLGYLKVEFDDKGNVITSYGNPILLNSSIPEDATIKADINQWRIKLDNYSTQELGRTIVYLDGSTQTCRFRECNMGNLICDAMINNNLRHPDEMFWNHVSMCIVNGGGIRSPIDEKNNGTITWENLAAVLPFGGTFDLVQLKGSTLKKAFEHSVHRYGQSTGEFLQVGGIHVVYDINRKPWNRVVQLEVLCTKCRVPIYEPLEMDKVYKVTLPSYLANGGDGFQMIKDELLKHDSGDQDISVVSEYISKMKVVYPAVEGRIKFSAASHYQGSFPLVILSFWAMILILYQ

[3] = Terminal half life in dog at 0.2 mg/kg, iv; assay type: ADME, organism-based, Canis lupus familiaris; conditions: in vivo, read-out: beta t1/2 (converted)
[4] = Terminal half life in rat at 0.2 mg/kg, iv; assay type: ADME, organism-based; conditions: in vivo, read-out: beta t1/2 (converted)
[5] = AUC in cynomolgus monkey at 0.2 mg/kg, iv; assay type: ADME, organism-based, Macaca fascicularis; parameters: dose 0.2 mg/kg; conditions: in vivo
[6] = Cmax in cynomolgus monkey at 10 mg/kg, po; assay type: ADME, organism-based, Macaca fascicularis; parameters: route oral, dose 10 mg/kg; conditions: in vivo
[7] = tested on: EMT6; test: Antitumor activity against mouse EMT6 cells implanted in BALB/c mouse assessed as tumour growth inhibition at 15 mg/kg, sc and measured on day 13; assay type: functional, organism-based; conditions: time 13.0 day
[8] = target: T2, 5'-nucleotidase (Homo sapiens, UniProt P21589); test: Inhibition of CD73 in CD3/CD28/CD2 activated human CD8+ T-cells assessed as increase in T cell proliferation at 4.1 to 1000 nM preincubated for 15 mins followed by AMP addition and measured after 96 hr by flow cytometric analysis; assay type: tissue-based; conditions: CD8-positive T cell, dose nM 4.1-1000, time 15.0 min
[9] = Volume of distribution at steady state in rat at 0.2 mg/kg, iv; assay type: ADME, organism-based; conditions: in vivo, read-out: Vdss
[10] = AUC infinity in mouse at 200 mg/kg, po; assay type: ADME, organism-based; parameters: route oral, time infinity, dose 200 mg/kg; conditions: in vivo
[11] = AUC in rat at 0.2 mg/kg, iv; assay type: ADME, organism-based; parameters: dose 0.2 mg/kg; conditions: in vivo
[12] = AUC in dog at 10 mg/kg, po; assay type: ADME, organism-based, Canis lupus familiaris; parameters: dose 10 mg/kg; conditions: in vivo
[13] = target: Cytochrome P450 2C9 (Homo sapiens, UniProt P11712); test: Inhibition of CYP2C9 (unknown origin); assay type: ADME
[14] = target: T1, 5'-nucleotidase (Mus musculus); test: Inhibition of CD73 in AMP-induced mouse E.G7-OVA cells at 10 to 100 nM incubated for 60 mins by Wachstein-Meisel lead phosphate method; assay type: cell-based; conditions: dose nM 10-100, time 60.0 min
[15] = target: T2, 5'-nucleotidase; test: Inhibition of CD73 in CD3/CD28/CD2 activated human CD8+ T-cells assessed as increase in IFNgamma protein expression at 4.1 to 1000 nM preincubated for 15 mins followed by AMP addition and measured after 96 hr by ELISA; assay type: tissue-based; conditions: CD8-positive T cell, dose nM 4.1-1000, time 15.0 min
[16] = Terminal half life in cynomolgus monkey at 0.2 mg/kg, iv; assay type: ADME, organism-based, Macaca fascicularis; conditions: in vivo, read-out: beta t1/2 (converted)
[17] = tested on: E.G7-OVA; test: Antitumour activity against mouse E.G7-OVA cells implanted in C57BL/6 mouse assessed as increase in percentage of CD8+ T cells in total CD45+ leukocytes at 150 mg/kg, po BID for 16 days; assay type: functional, organism-based; conditions: time 16.0 day
[18] = target: T2, 5'-nucleotidase; test: Inhibition of CD73 in human NCI-H1568 cells assessed as reduction in AMP-induced ADO expression preincubated for 15 mins followed by AMP addition and measured after 1 hr by LC-MS/MS analysis; assay type: cell-based
[19] = Clearance in rat at 0.2 mg/kg, iv; assay type: ADME, organism-based; conditions: in vivo
[20] = AUC in rat at 10 mg/kg, po; assay type: ADME, organism-based; parameters: dose 10 mg/kg; conditions: in vivo
[21] = target: T2, 5'-nucleotidase; test: Inhibition of CD73 in human NCI-H1568 cells assessed as reduction in AMP-induced ADO expression preincubated for 15 mins followed by AMP addition and measured after 1 hr by LC-MS/MS analysis relative to control; assay type: cell-based
[22] = Clearance in cynomolgus monkey at 0.2 mg/kg, iv; assay type: ADME, organism-based, Macaca fascicularis; conditions: in vivo
[23] = Cmax in rat at 10 mg/kg, po; assay type: ADME, organism-based; parameters: route oral, dose 10 mg/kg; conditions: in vivo
[24] = Volume of distribution at steady state in cynomolgus monkey at 0.2 mg/kg, iv; assay type: ADME, organism-based, Macaca fascicularis; conditions: in vivo, read-out: Vdss
[25] = target: T1, 5'-nucleotidase (Mus musculus); test: Inhibition of CD73 in AMP-induced mouse E.G7-OVA cells incubated for 60 mins by Wachstein-Meisel lead phosphate method; assay type: cell-based; conditions: dose nM 10-100, time 60.0 min
[26] = target: T2, 5'-nucleotidase; test: Inhibition of CD73 in human CD8+ T-cells assessed as reduction in AMP-induced ADO expression preincubated for 15 mins followed by AMP addition and measured after 1 hr by LC-MS/MS analysis; assay type: tissue-based, CD8-positive T cell
[27] = target: T2, 5'-nucleotidase; test: Inhibition of CD73 in CD3/CD28/CD2 activated human CD8+ T-cells assessed as increase in TNFalpha protein expression at 4.1 to 1000 nM preincubated for 15 mins followed by AMP addition and measured after 96 hr by ELISA; assay type: tissue-based; conditions: CD8-positive T cell, dose nM 4.1-1000, time 15.0 min
[28] = Clearance in dog at 0.2 mg/kg, iv; assay type: ADME, organism-based, Canis lupus familiaris; conditions: in vivo
[29] = tested on: EMT6; test: Antitumor activity against mouse EMT6 cells implanted in BALB/c mouse assessed as decrease in ADO/AMP ratio at 15 mg/kg, sc and measured on day 13 relative to control; assay type: functional; parameters: scale not given: the % may be the effect or the level left; conditions: time 13 day
[30] = AUC in cynomolgus monkey at 10 mg/kg, po; assay type: ADME, organism-based, Macaca fascicularis; parameters: dose 10 mg/kg; conditions: in vivo
[31] = target: T2, 5'-nucleotidase; test: Inhibition of human C-terminal His6-tagged CD73 expressed in CHO cells preincubated for 15 mins followed by AMP addition and measured after 10 mins by malachite green reagent based assay; assay type: cell-based
[32] = Volume of distribution at steady state in dog at 0.2 mg/kg, iv; assay type: ADME, organism-based, Canis lupus familiaris; conditions: in vivo, read-out: Vdss
[33] = tested on: EMT6; test: Antitumor activity against mouse EMT6 cells implanted in BALB/c mouse assessed as decrease in ADO expression at 15 mg/kg, sc and measured on day 13 relative to control; assay type: functional; parameters: scale not given: the % may be the effect or the level left; conditions: time 13 day
[34] = target: Cytochrome P450 3A4 (Homo sapiens, UniProt P08684); test: Inhibition of CYP3A4 (unknown origin); assay type: ADME
[35] = Terminal half life in mouse at 200 mg/kg, po; assay type: ADME, organism-based; conditions: in vivo, read-out: beta t1/2 (converted)
[36] = target: T3, Cytochrome P450 2C8 (Homo sapiens, UniProt P10632); test: Inhibition of CYP2C8 (unknown origin); assay type: ADME
T3 sequence (P10632 whole entry): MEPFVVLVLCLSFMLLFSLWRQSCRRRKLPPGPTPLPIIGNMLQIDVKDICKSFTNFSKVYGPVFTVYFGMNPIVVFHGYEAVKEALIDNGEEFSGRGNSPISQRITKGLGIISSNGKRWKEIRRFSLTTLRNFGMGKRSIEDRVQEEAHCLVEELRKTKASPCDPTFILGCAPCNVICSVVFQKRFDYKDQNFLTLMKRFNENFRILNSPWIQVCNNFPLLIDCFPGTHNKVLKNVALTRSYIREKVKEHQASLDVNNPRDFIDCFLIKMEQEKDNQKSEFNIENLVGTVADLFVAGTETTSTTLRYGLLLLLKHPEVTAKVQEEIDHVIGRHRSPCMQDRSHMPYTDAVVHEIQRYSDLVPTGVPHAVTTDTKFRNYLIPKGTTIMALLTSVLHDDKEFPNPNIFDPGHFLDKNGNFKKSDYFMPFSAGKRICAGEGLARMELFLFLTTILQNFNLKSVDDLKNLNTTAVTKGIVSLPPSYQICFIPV

[37] = tested on: E.G7-OVA; test: Antitumour activity against mouse E.G7-OVA cells implanted in C57BL/6 mouse assessed as increase in CD8+/Treg ratio at 150 mg/kg, po BID for 16 days; assay type: functional, organism-based; conditions: time 16.0 day
[38] = Cmax in mouse at 200 mg/kg, po; assay type: ADME, organism-based; parameters: route oral, dose 200 mg/kg; conditions: in vivo
[39] = target: T2, 5'-nucleotidase; test: Inhibition of CD73 in human CD8+ T-cells assessed as reduction in AMP-induced ADO expression preincubated for 15 mins followed by AMP addition and measured after 1 hr by LC-MS/MS analysis relative to control; assay type: tissue-based; conditions: CD8-positive T cell
[40] = AUC in dog at 0.2 mg/kg, iv; assay type: ADME, organism-based, Canis lupus familiaris; parameters: dose 0.2 mg/kg; conditions: in vivo
[41] = target: T4, 5'-nucleotidase (Mus musculus, UniProt Q61503); test: Inhibition of CD73 in mouse EMT6 cells assessed as reduction in AMP-induced ADO expression preincubated for 15 mins followed by AMP addition and measured after 1 hr by LC-MS/MS analysis; assay type: cell-based
T4 sequence (Q61503 whole entry): T1 sequence (whole entry)

T2 sequence (P21589 whole entry): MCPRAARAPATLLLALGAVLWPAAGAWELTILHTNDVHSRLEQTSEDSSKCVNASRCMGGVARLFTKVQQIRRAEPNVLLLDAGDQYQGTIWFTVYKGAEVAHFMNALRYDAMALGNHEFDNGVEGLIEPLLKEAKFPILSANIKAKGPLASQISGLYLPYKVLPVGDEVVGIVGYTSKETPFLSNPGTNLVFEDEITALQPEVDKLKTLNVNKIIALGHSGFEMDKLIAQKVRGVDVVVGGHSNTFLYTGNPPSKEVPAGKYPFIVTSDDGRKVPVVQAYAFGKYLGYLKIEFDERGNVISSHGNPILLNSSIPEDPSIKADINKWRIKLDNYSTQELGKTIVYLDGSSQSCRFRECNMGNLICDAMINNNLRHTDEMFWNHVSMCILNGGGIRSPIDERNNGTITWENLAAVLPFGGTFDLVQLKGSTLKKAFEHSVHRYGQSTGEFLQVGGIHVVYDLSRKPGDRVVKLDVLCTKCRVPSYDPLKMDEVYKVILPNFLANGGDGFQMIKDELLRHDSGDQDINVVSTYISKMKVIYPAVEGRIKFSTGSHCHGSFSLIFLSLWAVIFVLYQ
Cytochrome P450 3A4, sequence (P08684 whole entry): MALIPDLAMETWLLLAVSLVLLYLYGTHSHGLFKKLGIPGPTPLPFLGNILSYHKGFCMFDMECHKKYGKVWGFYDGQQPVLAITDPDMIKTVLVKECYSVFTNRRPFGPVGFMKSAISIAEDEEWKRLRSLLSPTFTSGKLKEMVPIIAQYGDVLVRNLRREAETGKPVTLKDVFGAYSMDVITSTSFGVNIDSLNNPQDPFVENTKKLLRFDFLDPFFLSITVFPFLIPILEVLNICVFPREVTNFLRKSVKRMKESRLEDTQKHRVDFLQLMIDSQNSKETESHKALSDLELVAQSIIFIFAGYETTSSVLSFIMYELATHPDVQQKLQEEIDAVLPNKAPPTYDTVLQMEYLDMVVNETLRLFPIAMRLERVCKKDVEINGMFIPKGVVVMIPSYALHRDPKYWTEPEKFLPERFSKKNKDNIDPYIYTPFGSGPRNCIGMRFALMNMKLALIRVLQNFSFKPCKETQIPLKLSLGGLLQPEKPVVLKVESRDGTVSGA
Cytochrome P450 2C9, sequence (P11712 whole entry): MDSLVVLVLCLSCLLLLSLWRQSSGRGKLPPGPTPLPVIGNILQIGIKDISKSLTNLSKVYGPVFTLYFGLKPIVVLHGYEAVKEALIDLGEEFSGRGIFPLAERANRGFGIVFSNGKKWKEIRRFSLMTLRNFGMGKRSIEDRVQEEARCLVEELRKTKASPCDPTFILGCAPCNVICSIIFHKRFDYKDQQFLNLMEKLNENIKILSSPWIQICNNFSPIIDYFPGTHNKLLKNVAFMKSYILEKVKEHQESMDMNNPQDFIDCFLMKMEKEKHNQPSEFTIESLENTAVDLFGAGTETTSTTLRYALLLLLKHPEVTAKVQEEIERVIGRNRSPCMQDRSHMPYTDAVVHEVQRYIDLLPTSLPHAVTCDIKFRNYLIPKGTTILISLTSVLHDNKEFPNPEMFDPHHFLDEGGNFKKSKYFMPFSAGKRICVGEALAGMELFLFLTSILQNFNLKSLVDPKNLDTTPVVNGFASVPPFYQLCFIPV

- Cmax [1]: 1250 nM
- inhibition [2]: 100%
- half-life [3]: 0.82 h
- half-life [4]: 8.5 h
- AUC [5]: 7.72 µM·h
- Cmax [6]: 1720 nM
- inhibition [8]: Active
- Vd [9]: 0.22 L/kg
- AUC(0-inf) [10]: 45.1 µM·h
- AUC [11]: 2.11 µM·h
- AUC [12]: 1.75 µM·h
- IC50 [13]: > 20000 nM
- inhibition [14]: Active
- inhibition [15]: Active
- half-life [16]: 4.6 h
- EC50 [18]: 0.79 nM
- clearance [19]: 3 mL/min/kg
- AUC [20]: 1.96 µM·h
- inhibition [21]: 100%
- clearance [22]: 0.833 mL/min/kg
- Cmax [23]: 820 nM
- Vd [24]: 0.1 L/kg
- inhibition [25]: Dose-dependent effect
- EC50 [26]: 0.22 nM
- inhibition [27]: Active
- clearance [28]: 20.3 mL/min/kg
- AUC [30]: 14.2 µM·h
- IC50 [31]: 0.25 nM
- Vd [32]: 0.29 L/kg
- IC50 [34]: > 20000 nM
- half-life [35]: 3.3 h
- IC50 [36]: > 20000 nM
- Cmax [38]: 42200 nM
- inhibition [39]: 100%
- AUC [40]: 0.31 µM·h
- EC50 [41]: 14 nM
Compound: COC[C@](CO)(OC[C@H]1O[C@@H](n2ncc3c(NC4CCCC4)nc(Cl)nc32)[C@H](O)[C@@H]1O)P(=O)(O)O
- Activity [7]: Active
- Activity [17]: Active
- Activity [29]: 95%
- Activity [33]: 100%
- Activity [37]: Active
